The target of one data set is CYP3A4 (Homo sapiens, UniProt P08684). Description: Inhibition of CYP3A4 (unknown origin) at 10 uM relative to control. In kind it is ADME.
In the next data set the target is CYP2C9 (Homo sapiens, UniProt P11712). As to the kind of experiment: Inhibition of CYP2C9 (unknown origin) at 10 uM relative to control. In kind it is ADME.
Data set [1] deals with Mitogen-activated protein kinase 10 (Homo sapiens, UniProt P53779). Description: Inhibition of JNK3 (unknown origin).
Sequence of Mitogen-activated protein kinase 10 (P53779 whole entry): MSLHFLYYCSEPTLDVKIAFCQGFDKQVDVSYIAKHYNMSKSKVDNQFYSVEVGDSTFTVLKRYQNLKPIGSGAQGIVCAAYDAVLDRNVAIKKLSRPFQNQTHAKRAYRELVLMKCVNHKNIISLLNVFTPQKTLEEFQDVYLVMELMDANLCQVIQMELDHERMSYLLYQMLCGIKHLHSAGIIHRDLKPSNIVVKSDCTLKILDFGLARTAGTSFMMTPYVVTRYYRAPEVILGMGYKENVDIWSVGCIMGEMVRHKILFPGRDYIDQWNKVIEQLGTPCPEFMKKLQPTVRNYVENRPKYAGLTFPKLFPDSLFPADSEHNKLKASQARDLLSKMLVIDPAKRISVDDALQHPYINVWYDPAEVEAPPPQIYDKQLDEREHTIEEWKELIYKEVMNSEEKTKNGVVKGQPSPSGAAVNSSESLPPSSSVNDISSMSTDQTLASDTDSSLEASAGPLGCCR
A short description of data set [2]: Inhibition of ROCK in rat A7r5 cells assessed as inhibition of myosin light chain bisphosphorylation by Western blot analysis. In kind it is cell-based.
The next data set addresses CYP2D6 (Homo sapiens, UniProt P10635). Description: Inhibition of CYP2D6 (unknown origin) at 10 uM relative to control. In kind it is ADME.
The target of data set [3] is Serine/threonine-protein kinase MRCK alpha (Homo sapiens, UniProt Q5VT25). As to the kind of experiment: Inhibition of MRCKalpha (unknown origin).
Data set [4] deals with Mitogen-activated protein kinase 14 (Homo sapiens, UniProt Q16539). Description: Inhibition of p38alpha (unknown origin).
Sequence of Mitogen-activated protein kinase 14 (Q16539 whole entry): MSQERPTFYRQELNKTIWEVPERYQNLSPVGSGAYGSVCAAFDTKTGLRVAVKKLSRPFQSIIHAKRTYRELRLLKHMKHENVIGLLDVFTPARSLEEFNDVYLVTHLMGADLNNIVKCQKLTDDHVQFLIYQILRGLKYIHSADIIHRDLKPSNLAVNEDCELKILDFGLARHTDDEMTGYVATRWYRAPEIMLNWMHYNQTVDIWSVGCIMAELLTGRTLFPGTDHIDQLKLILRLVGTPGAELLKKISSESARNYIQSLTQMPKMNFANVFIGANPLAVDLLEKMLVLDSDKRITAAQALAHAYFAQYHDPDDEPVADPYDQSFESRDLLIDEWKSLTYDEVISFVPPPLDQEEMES
A short description of data set [5]: Half life in human liver microsomes. In kind it is ADME, Microsome.
In another data set the target is T1, CYP1A2 (Homo sapiens, UniProt P05177).
T1 sequence (P05177 whole entry): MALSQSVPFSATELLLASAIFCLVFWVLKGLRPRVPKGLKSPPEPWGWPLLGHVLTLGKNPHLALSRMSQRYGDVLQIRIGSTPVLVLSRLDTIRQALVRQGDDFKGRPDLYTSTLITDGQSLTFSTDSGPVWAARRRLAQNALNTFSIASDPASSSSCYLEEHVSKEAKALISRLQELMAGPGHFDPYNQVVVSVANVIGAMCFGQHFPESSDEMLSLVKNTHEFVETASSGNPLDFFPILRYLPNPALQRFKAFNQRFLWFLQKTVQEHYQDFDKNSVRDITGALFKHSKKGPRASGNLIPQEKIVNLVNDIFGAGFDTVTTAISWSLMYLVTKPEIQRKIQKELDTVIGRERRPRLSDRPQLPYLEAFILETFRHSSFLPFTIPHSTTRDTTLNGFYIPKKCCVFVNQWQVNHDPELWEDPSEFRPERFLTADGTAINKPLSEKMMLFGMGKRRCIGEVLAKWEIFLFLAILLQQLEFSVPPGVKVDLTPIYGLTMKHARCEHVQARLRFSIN
Description: Inhibition of CYP1A2 (unknown origin) at 10 uM relative to control. In kind it is ADME.

The target of data set [6] is Rho-associated protein kinase 2 (Homo sapiens, UniProt O75116). As to the kind of experiment: Inhibition of human recombinant 6-His-tagged ROCK2 expressed in baculovirus-infected Sf9 cells using LCB-AKRRRLSSLRA-NH2 as substrate after 25 mins by TR-FRET assay.
Sequence of Rho-associated protein kinase 2 (O75116 whole entry): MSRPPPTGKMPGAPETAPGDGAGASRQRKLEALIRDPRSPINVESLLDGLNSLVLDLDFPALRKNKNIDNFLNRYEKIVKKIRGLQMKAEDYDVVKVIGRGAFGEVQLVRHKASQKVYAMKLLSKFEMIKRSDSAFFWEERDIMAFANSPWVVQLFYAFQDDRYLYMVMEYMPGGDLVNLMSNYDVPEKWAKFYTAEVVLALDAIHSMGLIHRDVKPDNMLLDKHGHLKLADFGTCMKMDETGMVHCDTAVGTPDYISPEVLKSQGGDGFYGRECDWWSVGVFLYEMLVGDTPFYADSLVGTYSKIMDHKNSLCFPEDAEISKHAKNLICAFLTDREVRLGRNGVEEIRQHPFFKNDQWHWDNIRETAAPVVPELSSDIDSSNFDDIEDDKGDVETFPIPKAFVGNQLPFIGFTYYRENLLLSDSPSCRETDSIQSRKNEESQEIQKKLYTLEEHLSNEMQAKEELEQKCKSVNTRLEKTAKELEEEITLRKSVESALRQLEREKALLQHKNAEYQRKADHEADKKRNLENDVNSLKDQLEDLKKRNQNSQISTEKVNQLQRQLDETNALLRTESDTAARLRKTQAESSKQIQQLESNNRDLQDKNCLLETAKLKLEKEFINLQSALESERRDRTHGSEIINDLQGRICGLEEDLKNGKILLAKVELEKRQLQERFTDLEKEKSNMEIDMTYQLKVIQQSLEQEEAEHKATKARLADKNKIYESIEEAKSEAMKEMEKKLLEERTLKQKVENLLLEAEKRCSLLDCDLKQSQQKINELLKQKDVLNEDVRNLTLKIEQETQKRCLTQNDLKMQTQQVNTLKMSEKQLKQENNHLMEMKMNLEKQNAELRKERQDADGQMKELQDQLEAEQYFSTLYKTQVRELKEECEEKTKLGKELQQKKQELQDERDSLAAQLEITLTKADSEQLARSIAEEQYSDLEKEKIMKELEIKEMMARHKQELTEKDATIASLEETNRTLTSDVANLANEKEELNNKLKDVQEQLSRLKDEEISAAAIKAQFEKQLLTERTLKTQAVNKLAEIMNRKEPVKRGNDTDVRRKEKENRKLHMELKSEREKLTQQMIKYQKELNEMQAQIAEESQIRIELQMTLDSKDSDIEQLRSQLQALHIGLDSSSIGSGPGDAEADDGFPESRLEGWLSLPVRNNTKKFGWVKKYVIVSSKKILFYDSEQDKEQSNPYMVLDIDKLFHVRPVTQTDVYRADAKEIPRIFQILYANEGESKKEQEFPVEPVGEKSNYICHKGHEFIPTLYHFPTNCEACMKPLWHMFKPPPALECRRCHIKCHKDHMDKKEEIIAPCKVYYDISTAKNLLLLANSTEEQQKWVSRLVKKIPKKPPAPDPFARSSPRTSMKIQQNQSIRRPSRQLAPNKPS
Data set [7] in a line: Inhibition of PKA (unknown origin). Details: species or system Homo sapiens.
The target in data set [8] is Mitogen-activated protein kinase 9 (Homo sapiens, UniProt P45984). As to the kind of experiment: Inhibition of JNK2 (unknown origin).
Data set [9] has as its target Mitogen-activated protein kinase 8 (Homo sapiens, UniProt P45983). Description: Inhibition of JNK1 (unknown origin).
Data set [10] has as its target Rho-associated protein kinase 1 (Homo sapiens, UniProt Q13464). Description: Inhibition of ROCK1 (unknown origin).

What is called inhibition is the change of the read-out against control, counted positive when it falls. As a reminder, the IC50 is the concentration needed to halve the response being measured. A word on the half-life: it is the time needed for the level to fall by half in the phase considered.

Sequence of Rho-associated protein kinase 1 (Q13464 whole entry): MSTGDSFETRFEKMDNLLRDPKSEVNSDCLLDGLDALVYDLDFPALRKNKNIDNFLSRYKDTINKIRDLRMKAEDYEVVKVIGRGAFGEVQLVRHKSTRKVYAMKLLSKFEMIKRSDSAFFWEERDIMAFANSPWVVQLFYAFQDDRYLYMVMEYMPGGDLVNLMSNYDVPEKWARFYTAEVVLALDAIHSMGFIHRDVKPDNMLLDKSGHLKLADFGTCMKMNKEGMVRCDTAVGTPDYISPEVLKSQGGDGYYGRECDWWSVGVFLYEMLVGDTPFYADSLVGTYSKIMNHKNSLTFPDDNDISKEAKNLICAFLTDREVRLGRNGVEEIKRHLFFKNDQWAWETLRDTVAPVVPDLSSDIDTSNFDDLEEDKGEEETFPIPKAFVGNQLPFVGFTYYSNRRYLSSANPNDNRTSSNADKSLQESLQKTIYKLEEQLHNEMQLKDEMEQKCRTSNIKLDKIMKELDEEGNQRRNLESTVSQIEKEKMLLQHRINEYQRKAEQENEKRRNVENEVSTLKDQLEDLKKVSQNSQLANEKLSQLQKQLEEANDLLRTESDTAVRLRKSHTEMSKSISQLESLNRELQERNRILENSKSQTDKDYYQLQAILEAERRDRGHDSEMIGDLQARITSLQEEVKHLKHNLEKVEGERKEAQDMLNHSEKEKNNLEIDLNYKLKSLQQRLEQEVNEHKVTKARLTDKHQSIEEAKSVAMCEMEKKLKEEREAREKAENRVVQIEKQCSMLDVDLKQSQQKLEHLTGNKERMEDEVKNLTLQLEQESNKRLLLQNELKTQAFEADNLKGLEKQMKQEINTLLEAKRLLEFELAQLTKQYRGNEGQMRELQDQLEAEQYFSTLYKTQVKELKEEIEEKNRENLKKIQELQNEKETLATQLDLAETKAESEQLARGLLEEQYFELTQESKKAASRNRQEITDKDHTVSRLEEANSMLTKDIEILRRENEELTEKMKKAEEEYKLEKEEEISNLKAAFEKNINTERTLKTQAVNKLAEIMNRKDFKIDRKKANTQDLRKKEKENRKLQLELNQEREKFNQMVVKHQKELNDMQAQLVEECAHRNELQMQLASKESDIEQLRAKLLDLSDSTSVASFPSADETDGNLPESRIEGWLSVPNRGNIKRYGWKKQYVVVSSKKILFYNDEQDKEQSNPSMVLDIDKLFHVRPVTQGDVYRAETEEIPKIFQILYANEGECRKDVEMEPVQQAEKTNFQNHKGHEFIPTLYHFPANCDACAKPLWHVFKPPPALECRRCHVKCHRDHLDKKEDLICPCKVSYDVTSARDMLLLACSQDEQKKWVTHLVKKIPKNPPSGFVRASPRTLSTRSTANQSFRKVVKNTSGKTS
Sequence of CYP3A4 (P08684 whole entry): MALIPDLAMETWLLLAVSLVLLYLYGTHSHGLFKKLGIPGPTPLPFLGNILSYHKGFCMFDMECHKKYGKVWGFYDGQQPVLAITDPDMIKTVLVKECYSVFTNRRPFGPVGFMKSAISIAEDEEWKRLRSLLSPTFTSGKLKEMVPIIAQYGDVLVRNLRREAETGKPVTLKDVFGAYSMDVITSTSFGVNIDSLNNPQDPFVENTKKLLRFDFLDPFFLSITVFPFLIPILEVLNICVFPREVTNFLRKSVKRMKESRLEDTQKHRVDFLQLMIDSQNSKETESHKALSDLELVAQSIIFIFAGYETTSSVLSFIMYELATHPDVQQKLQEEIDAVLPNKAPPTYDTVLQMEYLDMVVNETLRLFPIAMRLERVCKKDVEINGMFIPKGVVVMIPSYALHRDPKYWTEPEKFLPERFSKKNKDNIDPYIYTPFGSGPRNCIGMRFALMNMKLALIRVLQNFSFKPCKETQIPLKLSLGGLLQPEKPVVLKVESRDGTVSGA
Sequence of Mitogen-activated protein kinase 8 (P45983 whole entry): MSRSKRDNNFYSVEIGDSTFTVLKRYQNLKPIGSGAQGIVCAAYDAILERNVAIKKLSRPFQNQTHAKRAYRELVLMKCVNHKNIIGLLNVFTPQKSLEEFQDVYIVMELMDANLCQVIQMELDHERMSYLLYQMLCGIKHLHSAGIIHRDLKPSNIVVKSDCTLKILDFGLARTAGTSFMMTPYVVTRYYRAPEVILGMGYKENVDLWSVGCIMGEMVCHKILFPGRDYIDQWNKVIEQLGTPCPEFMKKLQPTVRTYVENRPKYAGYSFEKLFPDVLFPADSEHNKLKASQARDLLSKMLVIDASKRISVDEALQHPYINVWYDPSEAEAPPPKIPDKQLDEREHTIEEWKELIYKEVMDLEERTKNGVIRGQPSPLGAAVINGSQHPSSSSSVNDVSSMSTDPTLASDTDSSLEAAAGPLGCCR
Sequence of CYP2C9 (P11712 whole entry): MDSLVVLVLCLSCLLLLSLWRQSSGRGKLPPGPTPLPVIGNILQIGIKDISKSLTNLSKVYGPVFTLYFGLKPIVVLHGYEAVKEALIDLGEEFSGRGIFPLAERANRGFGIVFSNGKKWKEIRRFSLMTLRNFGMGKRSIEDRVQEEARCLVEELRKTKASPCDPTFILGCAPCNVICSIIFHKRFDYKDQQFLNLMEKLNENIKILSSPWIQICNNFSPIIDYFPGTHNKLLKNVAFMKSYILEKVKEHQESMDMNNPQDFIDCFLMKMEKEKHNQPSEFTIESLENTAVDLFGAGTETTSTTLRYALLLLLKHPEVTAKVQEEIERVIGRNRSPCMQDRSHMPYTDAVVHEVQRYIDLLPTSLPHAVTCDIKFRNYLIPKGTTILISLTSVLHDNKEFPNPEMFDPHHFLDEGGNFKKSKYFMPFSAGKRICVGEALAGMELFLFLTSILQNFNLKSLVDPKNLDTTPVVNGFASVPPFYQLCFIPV

On to `CN(C)c1nc([C@@H]2CNC[C@H]2c2ccccc2)nc2ccc(-c3cn[nH]c3)cc12`, for which the inhibition at 10 µM at CYP3A4 was 77%; at CYP2C9 it was 47%; at CYP2D6 it was 88%; against CYP1A2, 49%. The IC50 in data set [1] was more than 1000 nM; in data set [2] it was 800 nM; in data set [3] it was more than 1000 nM; in data set [4] it was more than 1000 nM; in [6], 2.5 nM; in data set [7], 279 nM. For the same compound, the IC50 in data set [8] and in data set [9] was more than 1000 nM in each case. Also, the half-life in data set [5] was 86 min.
For `CN(C)CC(=O)NC(c1ccc(Cl)cc1)c1nc2ccc(-c3cn[nH]c3)cc2c(=O)[nH]1` (stereo not drawn), the inhibition at 10 µM against CYP3A4 worked out at 23%; at CYP2C9, 83%; against CYP2D6, 55%; against CYP1A2, 10%. Also, the IC50 was more than 1000 nM in data set [1]; 500 nM in [2]; less than 1 nM in data set [10]; more than 1000 nM in [3]; more than 1000 nM in data set [4]; less than 1 nM in [6]. Also, the IC50 in data set [7] was 7 nM; in data set [8] it was more than 1000 nM; in [9], more than 1000 nM. Moreover, the half-life in data set [5] amounted to 15 min.
As to `COc1ccc([C@@H]2CN(C)C[C@H]2c2nc3ccc(-c4cn[nH]c4)cc3c(=O)[nH]2)cc1`, the inhibition at 10 µM against CYP3A4 is -3%; at CYP2C9 it was 55%; against CYP2D6, 66%; against CYP1A2, 0%. Moreover, the 50% inhibitory concentration (IC50) in data set [1] was more than 1000 nM; in data set [2], 30 nM; in data set [10], 13 nM; in [3] it was more than 1000 nM; in data set [4] it was more than 1000 nM; in data set [6], 5 nM. In addition, the IC50 was 26 nM in data set [7], more than 1000 nM in data set [8] and more than 1000 nM in [9]. Further, the half-life in data set [5] came out at 21 min.
Regarding `NC(c1cccc(Cl)c1)c1nc2ccc(-c3cn[nH]c3)cc2c(=O)[nH]1` (stereo not drawn), the inhibition at 10 µM was 75% against CYP3A4, 84% on CYP2C9, 89% against CYP2D6 and 18% against CYP1A2. Also, the IC50 is more than 1000 nM in data set [1]; 91 nM in data set [2]; 15 nM in [10]; more than 1000 nM in data set [3]; more than 1000 nM in data set [4]; 13 nM in data set [6]. Also, the IC50 in data set [8] and in data set [9] was more than 1000 nM in each case. Also, the half-life in data set [5] stood at 46 min.
`O=c1[nH]c([C@@H]2CNC[C@H]2c2ccc(Cl)cc2)nc2ccc(-c3cn[nH]c3)cc12`: the inhibition at 10 µM at CYP3A4 was 30%; on CYP2C9 it was 34%; at CYP2D6, 75%; on CYP1A2, 65%. Further, the IC50 is more than 1000 nM in [1]; 23 nM in [2]; 1 nM in data set [10]; more than 1000 nM in data set [3]; more than 1000 nM in [4]; less than 1 nM in [6]. The values for the IC50 in data set [7], in [8] and in data set [9] were 2 nM, more than 1000 nM and more than 1000 nM, respectively. Besides, the half-life in data set [5] amounted to 75 min.
As for `N[C@@H](Cc1ccc(F)cc1)c1nc2ccc(-c3cn[nH]c3)cc2c(=O)[nH]1`, the inhibition at 10 µM on CYP3A4 amounted to 31%; against CYP2C9, 38%; against CYP2D6, 89%; on CYP1A2, 12%. Further, the IC50 is more than 1000 nM in data set [1]; 300 nM in data set [2]; 17 nM in [10]; more than 1000 nM in data set [3]; more than 1000 nM in data set [4]; 9 nM in data set [6]. Also, the IC50 in data set [7] was 16 nM; in data set [8] it was more than 1000 nM; in [9] it was more than 1000 nM. The half-life in data set [5] worked out at 42 min.
In the case of `COc1cc(-c2cn[nH]c2)cc2c(=O)[nH]c([C@H](N)Cc3cccc(F)c3)nc12`, the inhibition at 10 µM came to 63% against CYP3A4, 10% against CYP2C9, 57% against CYP2D6 and 34% against CYP1A2. Also, the IC50 in data set [1] was more than 1000 nM; in [2], 470 nM; in [10], 7 nM; in [3], more than 1000 nM; in [4], more than 1000 nM; in data set [6], 7 nM. Further, the IC50 is 24 nM in data set [7], more than 1000 nM in data set [8] and more than 1000 nM in data set [9]. In addition, in [5], the half-life came out at 36 min.
On to `O=c1[nH]c([C@@H]2CNC[C@H]2c2ccccc2)nc2ccc(-c3cn[nH]c3)cc12`, for which the inhibition at 10 µM stood at 19% against CYP3A4, 5% at CYP2C9, 72% on CYP2D6 and 19% against CYP1A2. In addition, the IC50 in [1] was more than 1000 nM; in data set [2], 312 nM; in data set [10] it was 2 nM; in data set [3], more than 1000 nM; in data set [4], more than 1000 nM; in [6], 1 nM. In addition, the figures for the IC50 in data set [7], in data set [8] and in data set [9] were 4 nM, more than 1000 nM and more than 1000 nM, respectively. For the same compound, the half-life in data set [5] was 35 min.
Take `N[C@@H](Cc1ccc(Cl)cc1)c1nc2ccc(-c3cn[nH]c3)cc2c(=O)[nH]1`: the inhibition at 10 µM at CYP3A4 came out at 42%; on CYP2C9, 54%; against CYP2D6 it was 78%; on CYP1A2, 51%. The IC50 in data set [1] was more than 1000 nM; in data set [2], 300 nM; in [3] it was more than 1000 nM; in [4], more than 1000 nM; in [6], 6 nM; in data set [7], 7 nM. Also, the half-inhibitory concentration (IC50) in data set [8] and in data set [9] was more than 1000 nM in each case. Further, the half-life in data set [5] was determined as 47 min.

The record behind these values is ChEMBL document CHEMBL2331421, “Amino acid derived quinazolines as Rock/PKA inhibitors” (Bioorg Med Chem Lett, 2013).
